Data published in ChEMBL document CHEMBL1909046, “DrugMatrix in vitro pharmacology data”.

What was measured:
[1] = DRUGMATRIX: beta-Lactamase enzyme inhibition (substrate: Nitrocefin); design: species or system Bacillus cereus; settings: Not Active = under 50% inhibition at 10 µM
[2] = DRUGMATRIX: GABAA, Muscimol, Central radioligand binding (ligand: [3H] Muscimol); assay type: cell membranes, Rattus norvegicus, Wistar, Brain, Membrane; settings: Not Active = under 50% inhibition at 10 µM
[3] = DRUGMATRIX: Glutamate, Kainate radioligand binding (ligand: [3H] Kainic acid); assay type: cell membranes, Rattus norvegicus, Wistar, Brain, Membrane; settings: Not Active = under 50% inhibition at 10 µM
[4] = target: Melanocortin receptor 3 (Homo sapiens, UniProt P41968); assay type: cell membranes, HEK293, Membrane; further: in other assays of this panel Not Active means under 50% inhibition at 10 µM
[5] = target: Melanocortin receptor 4 (Homo sapiens, UniProt P32245); assay type: cell membranes, HEK293, Membrane; further: in other assays of this panel Not Active means under 50% inhibition at 10 µM
[6] = target: T1, Muscarinic acetylcholine receptor M5 (Homo sapiens, UniProt P08912); assay type: cell membranes, CHO-K1, Membrane; settings: for Ki: read-out: Ki; on all read-outs here: in other assays of this panel Not Active means under 50% inhibition at 10 µM
T1 sequence (P08912 whole entry): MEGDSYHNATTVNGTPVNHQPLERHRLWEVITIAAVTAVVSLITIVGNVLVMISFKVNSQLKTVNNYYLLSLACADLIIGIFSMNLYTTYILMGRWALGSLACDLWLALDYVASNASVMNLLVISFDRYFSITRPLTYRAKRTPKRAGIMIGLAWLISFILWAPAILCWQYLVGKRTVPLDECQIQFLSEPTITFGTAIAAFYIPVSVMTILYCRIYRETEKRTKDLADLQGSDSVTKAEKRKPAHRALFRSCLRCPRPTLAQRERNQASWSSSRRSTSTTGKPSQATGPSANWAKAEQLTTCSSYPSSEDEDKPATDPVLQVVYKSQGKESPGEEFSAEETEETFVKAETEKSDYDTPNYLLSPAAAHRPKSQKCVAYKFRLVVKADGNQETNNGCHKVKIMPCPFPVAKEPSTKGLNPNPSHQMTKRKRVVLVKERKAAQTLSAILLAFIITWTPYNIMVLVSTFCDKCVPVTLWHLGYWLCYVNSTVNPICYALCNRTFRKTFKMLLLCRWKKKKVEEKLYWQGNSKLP

Melanocortin receptor 3, sequence (P41968 whole entry): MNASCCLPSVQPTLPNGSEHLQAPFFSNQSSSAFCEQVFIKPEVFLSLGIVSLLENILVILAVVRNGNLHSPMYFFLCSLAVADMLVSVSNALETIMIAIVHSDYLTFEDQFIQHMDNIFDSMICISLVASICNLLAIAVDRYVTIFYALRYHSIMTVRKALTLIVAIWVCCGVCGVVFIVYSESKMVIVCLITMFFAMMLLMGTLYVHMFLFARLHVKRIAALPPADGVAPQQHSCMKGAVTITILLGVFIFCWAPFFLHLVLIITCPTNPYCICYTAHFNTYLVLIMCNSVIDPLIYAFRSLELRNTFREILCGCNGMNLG
Melanocortin receptor 4, sequence (P32245 whole entry): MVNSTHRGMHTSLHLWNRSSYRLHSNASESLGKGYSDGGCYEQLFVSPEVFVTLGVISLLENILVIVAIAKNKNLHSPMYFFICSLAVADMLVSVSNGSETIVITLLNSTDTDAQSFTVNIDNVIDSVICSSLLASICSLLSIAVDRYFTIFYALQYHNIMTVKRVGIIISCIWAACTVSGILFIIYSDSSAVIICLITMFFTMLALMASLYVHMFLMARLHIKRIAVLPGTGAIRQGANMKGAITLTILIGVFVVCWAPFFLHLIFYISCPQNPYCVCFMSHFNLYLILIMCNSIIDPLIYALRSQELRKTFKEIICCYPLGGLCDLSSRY

N[C@@H](Cc1ccc(N(CCCl)CCCl)cc1)C(=O)O
IC50 [1]: Not Active
Ki [1]: Not Active
IC50 [2]: Not Active
Ki [2]: Not Active
IC50 [3]: Not Active
Ki [3]: Not Active
IC50 ([4]; hek293): Not Active
IC50 ([5]; hek293): Not Active
IC50 ([6]; cho-k1): Not Active

CC(C)N1CCN(c2ccc(OCC3COC(Cn4cncn4)(c4ccc(Cl)cc4Cl)O3)cc2)CC1 (centres undefined) [TERCONAZOLE]
IC50 [1]: Not Active
Ki [1]: Not Active
IC50 [2]: Not Active
Ki [2]: Not Active
IC50 [3]: Not Active
Ki [3]: Not Active
IC50 ([4]; hek293): Not Active
IC50 ([5]; hek293): Not Active
IC50 ([6]; read-out: IC50): 4.36 µM
Ki [6]: 3.13 µM

Cc1nc2n(c(=O)c1CCN1CCC(c3noc4cc(F)ccc34)CC1)CCCC2 [RISPERIDONE]
IC50 ([4]; hek293): Not Active
IC50 ([5]; hek293): Not Active
IC50 ([6]; cho-k1): Not Active

N[C@@H]1[C@H]2CN(c3nc4c(cc3F)c(=O)c(C(=O)O)cn4-c3ccc(F)cc3F)C[C@@H]12 [TROVAFLOXACIN]
IC50 [1]: Not Active
Ki [1]: Not Active
IC50 [2]: Not Active
Ki [2]: Not Active
IC50 [3]: Not Active
Ki [3]: Not Active
IC50 ([4]; hek293): Not Active
IC50 ([5]; hek293): Not Active
IC50 ([6]; cho-k1): Not Active

O=c1ncn2nc(Sc3ccc(F)cc3F)ccc2c1-c1c(Cl)cccc1Cl [NEFLAMAPIMOD]
IC50 [1]: Not Active
Ki [1]: Not Active
IC50 [2]: Not Active
Ki [2]: Not Active
IC50 [3]: Not Active
Ki [3]: Not Active
IC50 ([4]; hek293): Not Active
IC50 ([5]; hek293): Not Active
IC50 ([6]; cho-k1): Not Active

CCCCc1oc2ccccc2c1C(=O)c1cc(I)c(OCCN(CC)CC)c(I)c1 [AMIODARONE]
IC50 ([6]; read-out: IC50): 1.5 µM
Ki [6]: 1.08 µM

CC[C@]1(O)C[C@H]2CN(CCc3c([nH]c4ccccc34)[C@@](C(=O)OC)(c3cc4c(cc3OC)N(C=O)[C@H]3[C@@](O)(C(=O)OC)[C@H](OC(C)=O)[C@]5(CC)C=CCN6CC[C@]43[C@@H]65)C2)C1 [VINCRISTINE]
IC50 [1]: Not Active
Ki [1]: Not Active
IC50 [2]: Not Active
Ki [2]: Not Active
IC50 [3]: Not Active
Ki [3]: Not Active
IC50 ([4]; hek293): Not Active
IC50 ([5]; hek293): Not Active
IC50 ([6]; cho-k1): Not Active

CO[C@H]1/C=C/O[C@@]2(C)Oc3c(C)c(O)c4c(O)c(c(/C=N/N5CCN(C)CC5)c(O)c4c3C2=O)NC(=O)/C(C)=C\C=C\[C@H](C)[C@H](O)[C@@H](C)[C@@H](O)[C@@H](C)[C@H](OC(C)=O)[C@@H]1C [RIFAMPIN]
IC50 [1]: Not Active
Ki [1]: Not Active
IC50 [2]: Not Active
Ki [2]: Not Active
IC50 [3]: Not Active
Ki [3]: Not Active
IC50 ([4]; hek293): Not Active
IC50 ([5]; hek293): Not Active
IC50 ([6]; cho-k1): Not Active

Cc1noc(NS(=O)(=O)c2ccc(N)cc2)c1C [SULFISOXAZOLE]
IC50 [1]: Not Active
Ki [1]: Not Active
IC50 [2]: Not Active
Ki [2]: Not Active
IC50 [3]: Not Active
Ki [3]: Not Active
IC50 ([4]; hek293): Not Active
IC50 ([5]; hek293): Not Active
IC50 ([6]; cho-k1): Not Active

NS(=O)(=O)c1cc2c(cc1Cl)NC(C(Cl)Cl)NS2(=O)=O (centres undefined) [TRICHLORMETHIAZIDE]
IC50 [1]: Not Active
Ki [1]: Not Active
IC50 [2]: Not Active
Ki [2]: Not Active
IC50 [3]: Not Active
Ki [3]: Not Active
IC50 ([4]; hek293): Not Active
IC50 ([5]; hek293): Not Active
IC50 ([6]; cho-k1): Not Active

COc1nc(C)nc(Cl)c1NC1=NCCN1 [MOXONIDINE]
IC50 [1]: Not Active
Ki [1]: Not Active
IC50 [2]: Not Active
Ki [2]: Not Active
IC50 [3]: Not Active
Ki [3]: Not Active
IC50 ([4]; hek293): Not Active
IC50 ([5]; hek293): Not Active
IC50 ([6]; cho-k1): Not Active

Nc1nc2ccc(OC(F)(F)F)cc2s1 [RILUZOLE]
IC50 [1]: Not Active
Ki [1]: Not Active
IC50 [2]: Not Active
Ki [2]: Not Active
IC50 [3]: Not Active
Ki [3]: Not Active
IC50 ([4]; hek293): Not Active
IC50 ([5]; hek293): Not Active
IC50 ([6]; cho-k1): Not Active

N[C@@H](Cc1cc(I)c(Oc2ccc(O)c(I)c2)c(I)c1)C(=O)O [LIOTHYRONINE]
IC50 ([4]; hek293): Not Active
IC50 ([5]; hek293): Not Active
IC50 ([6]; cho-k1): Not Active

C[C@@H]1CN(c2c(F)c(N)c3c(=O)c(C(=O)O)cn(C4CC4)c3c2F)C[C@H](C)N1 [SPARFLOXACIN]
IC50 [1]: Not Active
Ki [1]: Not Active
IC50 [2]: Not Active
Ki [2]: Not Active
IC50 [3]: Not Active
Ki [3]: Not Active
IC50 ([4]; hek293): Not Active
IC50 ([5]; hek293): Not Active
IC50 ([6]; cho-k1): Not Active

CC1(C)O[C@@H]2C[C@H]3[C@@H]4CCC5=CC(=O)C=C[C@]5(C)[C@@]4(F)[C@@H](O)C[C@]3(C)[C@]2(C(=O)CO)O1 [TRIAMCINOLONE ACETONIDE]
IC50 [1]: Not Active
Ki [1]: Not Active
IC50 [2]: Not Active
Ki [2]: Not Active
IC50 [3]: Not Active
Ki [3]: Not Active
IC50 ([4]; hek293): Not Active
IC50 ([5]; hek293): Not Active
IC50 ([6]; cho-k1): Not Active

CSc1ccc(/C=C2/C(C)=C(CC(=O)O)c3cc(F)ccc32)cc1 [SULINDAC SULFIDE]
IC50 [1]: Not Active
Ki [1]: Not Active
IC50 [2]: Not Active
Ki [2]: Not Active
IC50 [3]: Not Active
Ki [3]: Not Active
IC50 ([4]; hek293): Not Active
IC50 ([5]; hek293): Not Active
IC50 ([6]; cho-k1): Not Active

Nc1c2c(nc3ccccc13)CCCC2 [TACRINE]
IC50 [1]: Not Active
Ki [1]: Not Active
IC50 [2]: Not Active
Ki [2]: Not Active
IC50 [3]: Not Active
Ki [3]: Not Active
IC50 ([4]; hek293): Not Active
IC50 ([5]; hek293): Not Active
IC50 ([6]; cho-k1): Not Active

CN1CCN(CCCN2c3ccccc3Sc3ccc(Cl)cc32)CC1 [PROCHLORPERAZINE]
IC50 ([4]; hek293): Not Active
IC50 ([5]; hek293): Not Active
IC50 ([6]; read-out: IC50): 0.22 µM
Ki [6]: 0.158 µM

N[C@@H](Cc1ccc(O)c(O)c1)C(=O)O [LEVODOPA]
IC50 [1]: Not Active
Ki [1]: Not Active
IC50 [2]: Not Active
Ki [2]: Not Active
IC50 [3]: Not Active
Ki [3]: Not Active
IC50 ([4]; hek293): Not Active
IC50 ([5]; hek293): Not Active
IC50 ([6]; cho-k1): Not Active

O=NN(CCCl)C(=O)NC1CCCCC1 [LOMUSTINE]
IC50 [1]: Not Active
Ki [1]: Not Active
IC50 [2]: Not Active
Ki [2]: Not Active
IC50 [3]: Not Active
Ki [3]: Not Active
IC50 ([4]; hek293): Not Active
IC50 ([5]; hek293): Not Active
IC50 ([6]; cho-k1): Not Active

Cc1c(C)c2c(c(C)c1O)CCC(C)(COc1ccc(CC3SC(=O)NC3=O)cc1)O2 (centres undefined) [TROGLITAZONE]
IC50 [1]: Not Active
Ki [1]: Not Active
IC50 [2]: Not Active
Ki [2]: Not Active
IC50 [3]: Not Active
Ki [3]: Not Active
IC50 ([4]; hek293): Not Active
IC50 ([5]; hek293): Not Active
IC50 ([6]; cho-k1): Not Active

CCOC(=O)N1CCC(=C2c3ccc(Cl)cc3CCc3cccnc32)CC1 [LORATADINE]
IC50 [1]: Not Active
Ki [1]: Not Active
IC50 [2]: Not Active
Ki [2]: Not Active
IC50 [3]: Not Active
Ki [3]: Not Active
IC50 ([4]; hek293): Not Active
IC50 ([5]; hek293): Not Active
IC50 ([6]; cho-k1): Not Active

Cc1cccc(N(C)C(=S)Oc2ccc3ccccc3c2)c1 [TOLNAFTATE]
IC50 [1]: Not Active
Ki [1]: Not Active
IC50 [2]: Not Active
Ki [2]: Not Active
IC50 [3]: Not Active
Ki [3]: Not Active
IC50 ([4]; hek293): Not Active
IC50 ([5]; hek293): Not Active
IC50 ([6]; cho-k1): Not Active

NC[C@H]1CC[C@H](C(=O)O)CC1 [TRANEXAMIC ACID]
IC50 [1]: Not Active
Ki [1]: Not Active
IC50 [2]: Not Active
Ki [2]: Not Active
IC50 [3]: Not Active
Ki [3]: Not Active
IC50 ([4]; hek293): Not Active
IC50 ([5]; hek293): Not Active
IC50 ([6]; cho-k1): Not Active

CC/C(=C(\c1ccccc1)c1ccc(OCCN(C)C)cc1)c1ccccc1 [TAMOXIFEN]
IC50 ([4]; read-out: IC50): 19.9 µM
Ki ([4]; read-out: Ki): 17.3 µM
IC50 ([5]; read-out: IC50): 30.5 µM
Ki ([5]; read-out: Ki): 29.3 µM
IC50 ([6]; read-out: IC50): 2.58 µM
Ki [6]: 1.86 µM
